Measurements as given in the supplement of paper PMC10307832.

Assays:
Test in all cases: relative viability (nuclei count vs DMSO), 5 days (fraction); higher = more cells survive
Trametinib + Bortezomib = compound: CC(=O)Nc1cccc(-n2c(=O)n(C3CC3)c(=O)c3c(Nc4ccc(I)cc4F)n(C)c(=O)c(C)c32)c1 [Trametinib] + CC(C)C[C@H](NC(=O)[C@H](Cc1ccccc1)NC(=O)c1cnccn1)B(O)O [Bortezomib] (partner 0.002 µM)
In short: (§1)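 For relative viability, nuclei counts in treated wells were divided by those in vehicle wells. Lung cancer cell lines had been pin-tool dosed in 1536-well plates the day after seeding and cultured for 5 days, then fixed and stained in one step (final 0.05% Triton X-100, 1% formaldehyde, 1 ug/ml Hoechst) and imaged at 4×. Doses were one drug alone or a fixed anchor-drug dose plus five library-drug doses (not always all listed) in √10 steps, and values are duplicate-plate medians.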

[1] = compound: CN1C=C(C2=CC=CC=C21)/C=C\3/C4=C(C=CC=N4)NC3=O + Nc1ncn([C@H]2C[C@H](O)[C@@H](CO)O2)c(=O)n1 [Decitabine] (partner 2 µM)
In short: as §1

[2] = compound: CN1C=C(C2=CC=CC=C21)/C=C\3/C4=C(C=CC=N4)NC3=O + COc1cc2c(Oc3ccc(NC(=O)C4(C(=O)Nc5ccc(F)cc5)CC4)cc3F)ccnc2cc1OCCCN1CCOCC1 [Foretinib] (partner 0.25 µM)
In short: as §1

[3] = compound: CN1C=C(C2=CC=CC=C21)/C=C\3/C4=C(C=CC=N4)NC3=O + CCNC(=O)c1noc(-c2cc(C(C)C)c(O)cc2O)c1-c1ccc(CN2CCOCC2)cc1 [Luminespib] (partner 0.01 µM)
In short: as §1

Row | Cell Line | relative viability (Trametinib + Bortezomib; first compound 0.0025 µM) | relative viability (Trametinib + Bortezomib; first compound 0.007906 µM) | relative viability (Trametinib + Bortezomib; first compound 0.025 µM) | relative viability (Trametinib + Bortezomib; first compound 0.07906 µM) | relative viability (Trametinib + Bortezomib; first compound 0.25 µM) | relative viability ([1]; first compound 0.02 µM) | relative viability ([1]; first compound 0.06325 µM) | relative viability ([1]; first compound 0.2 µM) | relative viability ([1]; first compound 0.6325 µM) | relative viability ([1]; first compound 2 µM) | relative viability ([2]; first compound 0.02 µM) | relative viability ([2]; first compound 0.06325 µM) | relative viability ([2]; first compound 0.2 µM) | relative viability ([2]; first compound 0.6325 µM) | relative viability ([2]; first compound 2 µM) | relative viability ([3]; first compound 0.02 µM) | relative viability ([3]; first compound 0.06325 µM) | relative viability ([3]; first compound 0.6325 µM) | relative viability ([3]; first compound 2 µM) | relative viability ([3]; first compound 0.2 µM)
1 | HCC-366 | 0.962 | 0.897 | 0.902 | 0.645 | 0.172 | 0.304 | 0.335 | 0.349 | 0.369 | 0.342 | 0.934 | 1.01 | 0.886 | 0.916 | 0.896 | – | – | – | – | –
2 | HCC-827 | 0.943 | 0.989 | 0.974 | 0.92 | 0.748 | 0.315 | 0.297 | – | 0.327 | 0.297 | 0.851 | 1.01 | – | 1.18 | 0.893 | 0.589 | 0.52 | 0.59 | 0.756 | –
3 | HOP-62 | 0.776 | 0.956 | 0.425 | 0.439 | 0.186 | 0.184 | 0.206 | – | 0.188 | 0.241 | 1.11 | 1.17 | 1.22 | 1.13 | 1.12 | 0.783 | 0.986 | 0.946 | 0.957 | 0.802
4 | IA-LM | 0.621 | 0.392 | 0.174 | 0.178 | 0.111 | – | – | – | – | – | 1.28 | 1.01 | 1.12 | 1.19 | 1.23 | – | – | – | – | –
5 | LC-2-ad | 0.999 | 0.898 | 0.928 | 0.713 | 0.443 | 0.772 | 0.826 | 0.783 | 0.861 | 0.817 | 0.901 | 0.843 | 0.864 | 1.03 | 0.931 | 1.05 | 0.885 | 1.22 | 1.07 | 1.05
6 | LCLC-97TM1 | 0.616 | 0.482 | 0.128 | 0.0773 | 0.0973 | – | 0.189 | 0.205 | 0.208 | 0.241 | 0.891 | 0.793 | 0.91 | 1.03 | 0.921 | 0.669 | 0.611 | 0.809 | 0.944 | 0.82
7 | LK-2 | – | – | – | – | – | 0.225 | 0.24 | 0.192 | 0.275 | 0.375 | – | – | – | 1.23 | 1.41 | – | – | 0.189 | 0.186 | –
8 | NCI-H358 | – | – | – | – | – | 0.233 | 0.186 | 0.195 | 0.204 | 0.246 | 0.693 | 0.622 | 0.815 | 0.637 | 0.687 | 0.397 | 0.377 | 0.309 | 0.407 | 0.403
9 | NCI-H522 | – | – | – | – | – | 0.598 | 0.644 | 0.716 | 0.637 | 0.695 | – | – | – | – | – | 1.32 | 0.937 | 1.18 | 1.12 | 1.02
10 | NCI-H1299 | 1.04 | 0.992 | 0.971 | 0.955 | 0.739 | – | – | – | – | – | 1.09 | 1.1 | 1.16 | 1.07 | 1.02 | – | – | – | – | –
11 | NCI-H1395 | – | – | – | – | – | 0.642 | 0.702 | 0.686 | 0.699 | 0.688 | 0.889 | 0.942 | 0.864 | 0.992 | 0.868 | 0.876 | 0.595 | 0.696 | 0.669 | 0.521
12 | NCI-H1563 | 0.854 | 0.794 | 0.824 | 0.682 | 0.616 | – | – | – | – | – | 1.04 | 0.897 | 0.955 | 0.943 | 0.901 | 0.506 | 0.537 | 0.483 | 0.464 | 0.541
13 | NCI-H1623 | – | – | – | – | – | – | – | – | – | – | 0.838 | 0.878 | 0.701 | 0.712 | 0.755 | 0.422 | 0.473 | 0.446 | 0.289 | 0.428
14 | NCI-H1648 | – | – | – | – | – | 0.5 | 0.453 | 0.496 | 0.448 | 0.327 | – | – | – | – | – | – | – | – | – | –
15 | NCI-H1703 | 0.294 | 0.263 | 0.372 | 0.369 | 0.287 | – | – | – | – | – | 0.345 | 0.354 | 0.311 | 0.347 | 0.349 | – | – | – | – | –
16 | NCI-H1792 | 0.971 | 0.85 | 0.647 | 0.597 | 0.455 | 0.439 | 0.648 | 0.645 | 0.497 | 0.511 | – | – | – | – | – | 0.447 | 0.447 | 0.413 | 0.643 | –
17 | NCI-H1793 | – | – | – | – | – | 0.34 | 0.521 | 0.493 | 0.59 | 0.499 | 0.877 | 0.815 | 0.682 | 0.601 | 0.659 | 0.228 | 0.202 | 0.186 | 0.189 | 0.204
18 | NCI-H1944 | – | – | – | – | – | 0.423 | 0.419 | – | 0.415 | 0.416 | 0.89 | 0.874 | – | 0.826 | 0.77 | 0.706 | 0.742 | 0.767 | 0.897 | –
19 | NCI-H2170 | – | – | – | – | – | 0.481 | 0.487 | 0.458 | 0.447 | 0.411 | 1.02 | 1.03 | 1.03 | 0.94 | 1.04 | 0.623 | 0.616 | 0.778 | 0.738 | 0.626
20 | NCI-H2228 | 1.02 | 0.876 | 0.801 | 0.711 | 0.433 | – | – | – | – | – | 0.95 | 0.764 | – | – | 0.823 | 0.214 | 0.0886 | – | 0.132 | –
21 | NCI-H2342 | – | – | – | – | – | 0.685 | 0.702 | 0.674 | 0.693 | 0.623 | 1.15 | 0.927 | 1.05 | 0.914 | 1.13 | 0.685 | 0.743 | 0.757 | 0.669 | 0.6
22 | SK-MES-1 | – | – | – | – | – | 0.37 | 0.336 | 0.369 | 0.38 | 0.369 | 0.795 | 0.668 | 0.96 | 0.875 | 0.865 | 0.777 | 0.557 | 0.684 | 0.699 | 0.62
23 | SW 900 | – | – | – | – | – | 0.366 | – | – | 0.433 | 0.483 | 0.961 | 0.702 | – | 0.866 | 0.723 | 0.191 | 0.186 | 0.165 | 0.176 | –
